{"source": "paper PMC6352951", "about": "“Computationally driven discovery of phenyl(piperazin-1-yl)methanone derivatives as reversible monoacylglycerol lipase (MAGL) inhibitors” (Journal of Enzyme Inhibition and Medicinal Chemistry, 2019)", "key": {"[1]": {"tested_on": "MDA-MB-231, HCT116, CAOV3, OVCAR3 and SKOV3 cancer cells", "assay": "Cell viability assay, range over all tested cell lines", "type": "cell-based", "conditions": "Homo sapiens, 96 h", "description": "(§1) Human breast MDA-MB-231, colorectal HCT116 and ovarian CAOV3, OVCAR3, and SKOV3 cancer cells (from ATCC) were maintained at 37 °C in a humidified atmosphere containing 5% CO2 according to the supplier. Cells (5 × 10^2) were plated in 96-well culture plates. The day after seeding, vehicle or compounds were added at different concentrations to the medium. Compounds were added to the cell culture at a concentration ranging from 200 to 0.02 μM. Cell viability was measured after 96 h according to the supplier (Promega, cat. n° G7571) with a Tecan M1000 PRO instrument. IC50 values were calculated from logistical dose-response curves. Averages were obtained from triplicates and error bars are standard deviations."}, "Human recombinant MAGL": {"target": "T1, Human recombinant MAGL (Homo sapiens, UniProt Q99685)", "T1 construct": "purchased Cayman Chemical", "T1 sequence (Q99685 1-303)": "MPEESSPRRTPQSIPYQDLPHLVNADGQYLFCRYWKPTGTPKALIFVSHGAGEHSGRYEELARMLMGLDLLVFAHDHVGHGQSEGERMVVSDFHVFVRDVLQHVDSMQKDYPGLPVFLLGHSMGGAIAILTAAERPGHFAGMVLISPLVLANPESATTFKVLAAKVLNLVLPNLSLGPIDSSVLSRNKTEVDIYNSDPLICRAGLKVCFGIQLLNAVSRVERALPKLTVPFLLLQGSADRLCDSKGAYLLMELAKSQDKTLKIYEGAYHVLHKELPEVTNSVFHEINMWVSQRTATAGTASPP", "assay": "MAGL inhibition assay (4-NPA substrate, absorbance at 405 nm)", "type": "biochemical", "description": "Compounds 1–3 were purchased from ChemBridge corporation, whereas compounds 4 and 5 were synthesized. Human recombinant MAGL, 4-nitrophenyl acetate substrate (4-NPA) and CAY10499 were purchased from Cayman Chemical. The IC50 values were generated in 96-well microtiter plates. The MAGL reaction was conducted at rt at a final volume of 200 µL in […] Tris buffer, pH 7.2, containing […] EDTA. A total of 150 µL of 4-NPA 133.3 µM was added to 10 µL of DMSO containing the appropriate amount of compound. The reaction was initiated by the addition of 40 µL of MAGL (11 ng/well) in such a way that the assay was linear over 30 min. The final concentration of the analyzed compounds ranged from 10 to 0.00001 µM for CAY10499 and from 200 to 0.0128 µM for the other compounds. After the reaction had proceeded for 30 min, absorbance values were then measured by using a VictorX3 PerkinElmer instrument at 405 nm. Two reactions were also run: one reaction containing no compounds and the second one containing neither inhibitor nor enzyme. To remove possible false positive results, a blank analysis was carried out for each compound concentration and the final absorbance results were obtained detracting the absorbance produced by the presence of all the components except MAGL in the same conditions."}, "[2]": {"tested_on": "breast MDA-MB-231 cancer cells", "assay": "Cell viability assay", "type": "cell-based, human", "conditions": "96 h, mean ± SD", "description": "as §1"}, "[3]": {"tested_on": "ovarian OVCAR3 cancer cells", "assay": "Cell viability assay", "type": "cell-based, human", "conditions": "96 h, mean ± SD", "description": "as §1"}, "[4]": {"tested_on": "ovarian CAOV3 cancer cells", "assay": "Cell viability assay", "type": "cell-based, human", "conditions": "96 h, mean ± SD", "description": "as §1"}, "[5]": {"tested_on": "ovarian SKOV3 cancer cells", "assay": "Cell viability assay", "type": "cell-based, human", "conditions": "96 h, mean ± SD", "description": "as §1"}, "[6]": {"tested_on": "colorectal HCT116 cancer cells", "assay": "Cell viability assay", "type": "cell-based, human", "conditions": "96 h, mean ± SD", "description": "as §1"}, "[7]": {"conditions": "30 min reaction, no DTT, read-out: MAGL inhibition IC50"}}, "note": "Where two headings read alike, the source gives them in different places."}
{"smiles": "O=C(c1ccc(-c2cccc3ccc(O)cc23)cc1)N1CCN(c2cccc(Cl)c2)CC1", "note": "[compound 4]", "values": [{"measurement": "IC50", "setting": "[1]", "result": "31 to 72", "unit": "µM"}, {"measurement": "IC50", "setting": "Human recombinant MAGL; [7]", "result": 6.1, "unit": "µM"}, {"measurement": "IC50", "setting": "Human recombinant MAGL; in the presence of 10 μM DTT, read-out: MAGL inhibition IC50 in the presence of DTT", "result": 6.2, "unit": "µM"}, {"measurement": "Effect of preincubation time on MAGL inhibitory potency (reversibility)", "setting": "Human recombinant MAGL; preincubated with the enzyme for 0, 30 and 60 min before adding substrate", "result": "did not show any significant increase in inhibitory potency at longer incubation times"}, {"measurement": "Fold improvement of MAGL inhibition activity with respect to compound 1", "setting": "Human recombinant MAGL; ratio of IC50 values vs compound 1", "result": 4, "unit": "fold"}, {"measurement": "Fold higher MAGL inhibition activity than compound 5", "setting": "Human recombinant MAGL; ratio of IC50 values vs compound 5", "result": 5, "unit": "fold"}, {"measurement": "IC50", "setting": "[2]; Homo sapiens, MDA-MB-231", "result": "59 ± 5", "unit": "µM"}, {"measurement": "IC50", "setting": "[3]; Homo sapiens, OVCAR-3", "result": "72 ± 4", "unit": "µM"}, {"measurement": "IC50", "setting": "[4]; Homo sapiens, Caov-3", "result": "51 ± 3", "unit": "µM"}, {"measurement": "IC50", "setting": "[5]; Homo sapiens, SK-OV-3", "result": "31 ± 2", "unit": "µM"}, {"measurement": "IC50", "setting": "[6]; Homo sapiens, HCT-116", "result": "48 ± 2", "unit": "µM"}]}
{"smiles": "O=C(c1ccc(-c2ccccc2)cc1)N1CCN(c2cccc3ccc(O)cc23)CC1", "note": "[compound 5]", "values": [{"measurement": "IC50", "setting": "Human recombinant MAGL; [7]", "result": 31.9, "unit": "µM"}]}
{"smiles": "O=C(c1ccc(-c2ccccc2)cc1)N1CCN(c2cccc(Cl)c2)CC1", "note": "[compound 1]", "values": [{"measurement": "IC50", "setting": "Human recombinant MAGL; [7]", "result": 23.3, "unit": "µM"}]}
{"smiles": "COc1nn(-c2ccc(NC(=O)OCc3ccccc3)c(C)c2)c(=O)o1", "note": "[CAY10499, reference compound]", "values": [{"measurement": "IC50", "setting": "[2]", "result": "82 ± 5", "unit": "µM"}, {"measurement": "IC50", "setting": "[3]", "result": "52 ± 3", "unit": "µM"}, {"measurement": "IC50", "setting": "[4]", "result": "90 ± 6", "unit": "µM"}, {"measurement": "IC50", "setting": "[5]", "result": "38 ± 4", "unit": "µM"}, {"measurement": "IC50", "setting": "[6]", "result": "45 ± 3", "unit": "µM"}]}
